The subject of test [1] is Limulus. The test is described as follows: Compound was evaluated by Limulus amoebocyte lysate test; Positive at 100 ug/mL. The format is functional, organism-based.
Test [2] relates to Mus musculus. The test is described as follows: Compound was tested for antibody titer in mice after injection with antigen in saline; compound is pyrogenic at 1 mg/kg. The format is functional, organism-based. Also noted: dose 1 mg/kg.
Test [3] has as its system Cavia porcellus. Nature of the test: Compound was tested for delayed hypersensitivity in guinea pig after administration in a water in oil emulsion; compound is pyrogenic at 1 mg/kg. It counts as functional, organism-based. Also noted: dose 1 mg/kg.
The species named for test [4] is Oryctolagus cuniculus. The test is described as follows: Compound was tested for pyrogenicity in the rabbit; Delayed hypersensitivity. The format is functional, organism-based.
Test [5] has as its system Mus musculus. The test is described as follows: Compound was tested for protective activity in mice infected with Klebsiella pneumoniae; compound is pyrogenic at 1 mg/kg. The format is functional, organism-based. Also noted: dose 1 mg/kg.
Test [6] has as its system Mus musculus. Nature of the test: Compound was tested for [3H]thymidine uptake in mouse spleen cell cultures; compound is pyrogenic at 1 mg/kg. It counts as functional, organism-based. More on the design: dose 1 mg/kg.
For test [7], the system named is Limulus. The test is described as follows: Compound was evaluated by Limulus amoebocyte lysate test; positive at 10 ug/mL. It counts as functional, organism-based.
Test [8] deals with Mus musculus. Nature of the test: Compound was tested for [3H]- -thymidine uptake in mouse spleen cell cultures; compound is pyrogenic at 1 mg/kg. It counts as functional, organism-based. Also noted: dose 1 mg/kg.
For test [9], the species on record is Oryctolagus cuniculus. The test is described as follows: Compound was tested for pyrogenicity in the rabbit; non pyrogenic at […]. It counts as functional, organism-based.
Test [10] relates to Cavia porcellus. Nature of the test: Compound was tested for delayed hypersensitivity in guinea pig after administration in a water in oil emulsion; non pyrogenic at 1 mg/kg. The format is functional, organism-based. More on the design: dose 1 mg/kg.
The test system of test [11] is Mus musculus. The test is described as follows: Compound was tested for antibody titer in mice after injection with antigen in saline;compound is pyrogenic at 1 mg/kg. It counts as functional, organism-based. More on the design: dose 1 mg/kg.
Test [12] concerns Limulus. The test is described as follows: Compound was evaluated by Limulus amoebocyte lysate test; positive at 100 ug/mL. The format is functional.
The species named for test [13] is Oryctolagus cuniculus. The test is described as follows: Compound was tested for pyrogenicity in the rabbit; pyrogenic at 100 ug/mL. It counts as functional, organism-based.
For test [14], the system named is Limulus. The test is described as follows: Compound was evaluated by Limulus amoebocyte lysate test; negative at 100 ug/mL. The format is functional, organism-based.
Test [15] relates to Mus musculus. Nature of the test: Compound was tested for protective activity in mice infected with Klebsiella pneumoniae; compound is non pyrogenic at 1 mg/kg. The format is functional, organism-based. More on the design: dose 1 mg/kg.
Test [16] relates to Mus musculus. The test is described as follows: Compound was tested for protective activity in mice infected with Klebsiella pneumoniae; non pyrogenic at 1 mg/kg. The format is functional, organism-based. More on the design: dose 1 mg/kg.
Test [17] relates to Cavia porcellus. The test is described as follows: Compound was tested for delayed hypersensitivity in guinea pig after administration in a water in oil emulsion; compound is non pyrogenic at 1 mg/kg. The format is functional, organism-based. More on the design: dose 1 mg/kg.
Test [18] relates to Oryctolagus cuniculus. The test is described as follows: Compound was tested for pyrogenicity in the rabbit; non pyrogenic at 1 mg/kg. It counts as functional, organism-based. Also noted: dose 1 mg/kg.

These results are taken from ChEMBL document CHEMBL1121481, “Synthetic immunostimulants derived from the bacterial cell wall” (J Med Chem, 1980).

As for `COC(=O)CCC(NC(=O)C(C)NC(=O)C(C)OC1[C@H](O)C(CO)O[C@@H](O)[C@H]1NC(C)=O)C(=O)OC` (stereo partly specified), the LAL test entry in [1] is “Positive at 100 ug/mL”. The Adjuvant effect entry in [2] and in test [3] was “pyrogenic at 1 mg/kg” in each case. Also, the Pyrogenic effect result in [4] was “Not toxic”. Besides, in test [5], the Anti-infectious effect entry is recorded as “pyrogenic at 1 mg/kg”. In test [6], the Mitogenic effect entry is “pyrogenic at 1 mg/kg”.

For the compound `CC(=O)N[C@H]1C(OC(C)C(=O)NC(C)C(=O)NC(CCC(N)=O)C(=O)O)[C@H](O)C(CO)O[C@H]1O` (stereo partly specified), the LAL test result in [7] is “positive at 10 ug/mL”. Besides, the Mitogenic effect entry in test [8] is listed as “pyrogenic at 1 mg/kg”. The Pyrogenic effect entry in test [9] is “Not toxic”. For the same compound, the Anti-infectious effect result in [5] is “pyrogenic at 1 mg/kg”. For the same compound, the Adjuvant effect entry in test [10] is “Not toxic”; in [11], “pyrogenic at 1 mg/kg”.

Consider `CC(=O)N[C@H]1C(O)O[C@H](CO)[C@@H](O)[C@@H]1O[C@H](C)C(=O)N[C@@H](C)C(=O)N[C@H](CCC(=O)O)C(N)=O` (stereo partly specified), for which, in test [8], the Mitogenic effect entry is “pyrogenic at 1 mg/kg”. For the same compound, the Adjuvant effect result in [2] and in test [3] was “pyrogenic at 1 mg/kg” in each case. Also, the LAL test result in [12] was “positive at 100 ug/mL”. In addition, in test [13], the Pyrogenic effect entry was “pyrogenic at 100 ug/mL”. The Anti-infectious effect entry in [5] is on record as “pyrogenic at 1 mg/kg”.

Regarding `CC(=O)N[C@H]1[C@@H](O[C@@H](C)C(=O)N[C@@H](C)C(=O)N[C@H](CCC(=O)N[C@@H](CCCCN)C(=O)N[C@H](C)C(=O)O)C(N)=O)[C@H](O)[C@H](CO)O[C@H]1O`, the LAL test result in [14] was “Not toxic”. Also, in [15], the Anti-infectious effect entry is “Not toxic”. Moreover, in test [8], the Mitogenic effect entry is reported as “pyrogenic at 1 mg/kg”. The Adjuvant effect result in test [2] and in test [3] was “pyrogenic at 1 mg/kg” in each case. For the same compound, the Pyrogenic effect entry in test [13] is given as “pyrogenic at 100 ug/mL”.

Take `COC(=O)C(CCC(N)=O)NC(=O)C(C)NC(=O)C(C)OC1[C@H](O)C(CO)O[C@@H](O)[C@H]1NC(C)=O` (stereo partly specified): the Mitogenic effect entry in [8] was “pyrogenic at 1 mg/kg”. Also, the Adjuvant effect entry in [2] and in test [3] was “pyrogenic at 1 mg/kg” in each case. Further, the LAL test result in [12] is “positive at 100 ug/mL”. Moreover, the Pyrogenic effect result in test [4] was “Not toxic”. For the same compound, the Anti-infectious effect result in [16] is “Not toxic”.

`CC(=O)N[C@H]1C(OC(C)C(=O)NC(C)C(=O)NC(CCC(=O)O)C(=O)O)[C@H](O)C(CO)O[C@H]1O` (stereo partly specified): the LAL test result in test [14] is “negative at 100 ug/mL”. In [8], the Mitogenic effect result was “pyrogenic at 1 mg/kg”. Further, the Adjuvant effect entry in [2] is “pyrogenic at 1 mg/kg”; in test [17], “Not toxic”. The Pyrogenic effect result in test [18] is “Not toxic”. Further, in test [5], the Anti-infectious effect result is “pyrogenic at 1 mg/kg”.
